This note sets out measurements from patent publication US20220323406A1, “METHODS AND COMPOSITIONS FOR DIFFERENTIATING STEM CELLS” (Massachusetts Institute of Technology, priority 2019, published 2022).

Structures are written as SMILES. Where a name gives a salt, the structure may show the parent alone.

In assay [1] the test system is ENR+CD organoids (ISC to Paneth cell differentiation). Kind of assay: Primary screen: basal (non-stimulated) lysozyme secretion LYZ.NS, 2.5-D 384-well ENR+CD organoid differentiation. The following applies: primary screen; for Z.LYZ.NS: standard z score. Type of assay: cell-based, mouse. An excerpt:
(§1) High-throughput screening.

Assay [2] shares this test system. Kind of assay: Primary screen: CCh-stimulated lysozyme secretion LYZ.S, 2.5-D 384-well ENR+CD organoid differentiation. Type of assay: cell-based, mouse. The following applies: primary screen.
Source text: as §1

Assay [3] relates to ENR+CD organoids. Nature of the assay: Primary screen: ATP (CellTiter-Glo 3D, CTG) cell number/viability, 2.5-D 384-well ENR+CD organoids.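 For all read-outs here: compounds given at plating and again on day 3 over a 6-day differentiation from ENR+CV stem-cell-enriched precursors, ATP measured on day 6, plate median as control.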 Particulars: primary screen; for Z.CTG: standard z score.
[4] abbreviates: dose 0.08 uM, FC vs plate median.
The mark [5] stands for this setting: dose 0.40 uM, FC vs plate median.
The mark [6] stands for this setting: dose 2.00 uM, FC vs plate median.
Where [7] appears, read: dose 10.00 uM, FC vs plate median.

Take `C[C@H](Cn1cnc2c(N)ncnc21)OCP(=O)(O)O` [Tenofovir]: the Dose.FC.LYZ.NS in assay [1] (dose 0.08 uM) is on record as 0.077 log2 fold change; in assay [1] (dose 0.40 uM) it was −0.076 log2 fold change; in assay [1] (dose 2.00 uM), −0.132 log2 fold change; in assay [1] (dose 10.00 uM), −0.218 log2 fold change. In addition, the “Z.LYZ.NS (standard z score)” value is recorded as 0.673 in assay [1] (dose 0.08 uM), −0.662 in assay [1] (dose 0.40 uM), −1.153 in assay [1] (dose 2.00 uM) and −1.899 in assay [1] (dose 10.00 uM). The Dose.FC.LYZ.S in assay [2] (dose 0.08 uM) is given as 0.045 log2 fold change; in assay [2] (dose 0.40 uM), −0.080 log2 fold change; in assay [2] (dose 2.00 uM), −0.171 log2 fold change; in assay [2] (dose 10.00 uM), −0.271 log2 fold change. The Dose.FC.CTG in assay [3] (dose 0.08 uM) is on record as 0.019 log2 fold change; in assay [3] (dose 0.40 uM), −0.084 log2 fold change; in assay [3] (dose 2.00 uM), −0.129 log2 fold change; in assay [3] (dose 10.00 uM), −0.337 log2 fold change. Besides, the “Z.CTG (standard z score)” value in assay [3] (dose 0.08 uM) is recorded as 0.045; in assay [3] (dose 0.40 uM), −0.200; in assay [3] (dose 2.00 uM), −0.308; in assay [3] (dose 10.00 uM), −0.804.

Turning to `Cc1cc(-c2ccc(CC(=O)Nc3ccc(-c4cccnc4)cc3)cc2)ccn1` [Wnt-C59 (C59)], the Dose.FC.LYZ.NS in assay [1] (dose 0.08 uM) is −0.163 log2 fold change; in assay [1] (dose 0.40 uM), −0.182 log2 fold change; in assay [1] (dose 2.00 uM), −0.198 log2 fold change; in assay [1] (dose 10.00 uM), −0.191 log2 fold change. In addition, the “Z.LYZ.NS (standard z score)” value is reported as −1.424 in assay [1] (dose 0.08 uM), −1.588 in assay [1] (dose 0.40 uM), −1.724 in assay [1] (dose 2.00 uM) and −1.666 in assay [1] (dose 10.00 uM). Also, the Dose.FC.LYZ.S in assay [2] (dose 0.08 uM) is −0.242 log2 fold change; in assay [2] (dose 0.40 uM) it was −0.281 log2 fold change; in assay [2] (dose 2.00 uM), −0.313 log2 fold change; in assay [2] (dose 10.00 uM) it was −0.301 log2 fold change. Besides, the Dose.FC.CTG is on record as −0.572 log2 fold change in assay [3] (dose 0.08 uM), −0.611 log2 fold change in assay [3] (dose 0.40 uM), −0.627 log2 fold change in assay [3] (dose 2.00 uM) and −0.613 log2 fold change in assay [3] (dose 10.00 uM). The “Z.CTG (standard z score)” value in assay [3] (dose 0.08 uM) was −1.366; in assay [3] (dose 0.40 uM), −1.461; in assay [3] (dose 2.00 uM), −1.498; in assay [3] (dose 10.00 uM), −1.465.

In the case of `C[C@](O)(COc1ccc(C#N)cc1)C(=O)Nc1ccc(C#N)c(C(F)(F)F)c1` [MK-2866 (GTx-024)], the Z.LYZ.NS in assay [1] (dose 0.08 uM) was 0.309; in assay [1] (dose 0.40 uM), 0.241; in assay [1] (dose 2.00 uM) it was 0.310; in assay [1] (dose 10.00 uM), −0.510. Also, the Dose.FC.LYZ.NS in assay [1] (setting [4]) is listed as 0.035 log2 fold change; in assay [1] (setting [5]) it was 0.028 log2 fold change; in assay [1] (setting [6]), 0.036 log2 fold change; in assay [1] (setting [7]) it was −0.059 log2 fold change. In addition, the Dose.FC.LYZ.S is given as 0.072 log2 fold change in assay [2] (setting [4]), 0.050 log2 fold change in assay [2] (setting [5]), 0.078 log2 fold change in assay [2] (setting [6]) and −0.072 log2 fold change in assay [2] (setting [7]). The Z.CTG in assay [3] (dose 0.08 uM) was 0.003; in assay [3] (dose 0.40 uM) it was −0.474; in assay [3] (dose 2.00 uM), −0.210; in assay [3] (dose 10.00 uM) it was −0.877. The Dose.FC.CTG in assay [3] (setting [4]) is reported as 0.001 log2 fold change; in assay [3] (setting [5]), −0.198 log2 fold change; in assay [3] (setting [6]) it was −0.088 log2 fold change; in assay [3] (setting [7]) it was −0.367 log2 fold change.

On to `CN1C2CCCC1CC(NC(=O)c1nn(C)c3ccccc13)C2` (stereo not shown) [Granisetron HCl], for which the “Dose.FC.LYZ.NS (log2 fold change)” value in assay [1] (dose 0.08 uM) is 0.061; in assay [1] (dose 0.40 uM), −0.002; in assay [1] (dose 2.00 uM) it was 0.018; in assay [1] (dose 10.00 uM), −0.043. For the same compound, the “Z.LYZ.NS (standard z score)” value in assay [1] (dose 0.08 uM) is 0.531; in assay [1] (dose 0.40 uM), −0.021; in assay [1] (dose 2.00 uM), 0.155; in assay [1] (dose 10.00 uM), −0.378. The “Dose.FC.LYZ.S (log2 fold change)” value in assay [2] (dose 0.08 uM) is 0.015; in assay [2] (dose 0.40 uM), 0.131; in assay [2] (dose 2.00 uM), −0.007; in assay [2] (dose 10.00 uM), −0.103. For the same compound, the “Dose.FC.CTG (log2 fold change)” value is −0.214 in assay [3] (dose 0.08 uM), −0.086 in assay [3] (dose 0.40 uM), −0.178 in assay [3] (dose 2.00 uM) and −0.297 in assay [3] (dose 10.00 uM).

Take `Cl.Cl.NC1(c2ccc(-c3nc4ccn5c(=O)[nH]nc5c4cc3-c3ccccc3)cc2)CCC1` [MK-2206 2HCl]: the Z.LYZ.NS in assay [1] (dose 0.08 uM) is reported as 0.205; in assay [1] (dose 0.40 uM) it was −0.550; in assay [1] (dose 2.00 uM), −1.587; in assay [1] (dose 10.00 uM), −2.058. Further, the Dose.FC.LYZ.NS in assay [1] (setting [4]) is reported as 0.024 log2 fold change; in assay [1] (setting [5]), −0.063 log2 fold change; in assay [1] (setting [6]), −0.182 log2 fold change; in assay [1] (setting [7]) it was −0.236 log2 fold change. Further, the Dose.FC.LYZ.S in assay [2] (setting [4]) is recorded as 0.071 log2 fold change; in assay [2] (setting [5]) it was 0.083 log2 fold change; in assay [2] (setting [6]) it was −0.239 log2 fold change; in assay [2] (setting [7]) it was −0.367 log2 fold change. The Z.CTG in assay [3] (dose 0.08 uM) was 0.169; in assay [3] (dose 0.40 uM), −0.055; in assay [3] (dose 2.00 uM), −0.425; in assay [3] (dose 10.00 uM), −1.290. Moreover, the Dose.FC.CTG in assay [3] (setting [4]) was 0.071 log2 fold change; in assay [3] (setting [5]) it was −0.023 log2 fold change; in assay [3] (setting [6]) it was −0.178 log2 fold change; in assay [3] (setting [7]) it was −0.540 log2 fold change.

`CCN1CCC[C@H]1CNC(=O)c1cc(S(N)(=O)=O)ccc1OC` [Levosulpiride]: the “Dose.FC.LYZ.NS (log2 fold change)” value in assay [1] (dose 0.08 uM) is on record as 0.013; in assay [1] (dose 0.40 uM), 0.024; in assay [1] (dose 2.00 uM), 0.051; in assay [1] (dose 10.00 uM), −0.028. Further, the “Z.LYZ.NS (standard z score)” value in assay [1] (dose 0.08 uM) is 0.114; in assay [1] (dose 0.40 uM) it was 0.205; in assay [1] (dose 2.00 uM), 0.441; in assay [1] (dose 10.00 uM) it was −0.240. Further, the “Dose.FC.LYZ.S (log2 fold change)” value in assay [2] (dose 0.08 uM) was −0.017; in assay [2] (dose 0.40 uM), 0.128; in assay [2] (dose 2.00 uM), 0.124; in assay [2] (dose 10.00 uM), −0.026. The “Dose.FC.CTG (log2 fold change)” value in assay [3] (dose 0.08 uM) is given as −0.043; in assay [3] (dose 0.40 uM) it was −0.006; in assay [3] (dose 2.00 uM), 0.031; in assay [3] (dose 10.00 uM), 0.090.
